Each structure is given as a SMILES string. Where a name gives a salt, the structure may show the parent alone.

The values that follow come from patent US6995159B2, “5-HT receptor ligands and uses thereof” (Pfizer Inc., priority 2001, dated 2006).

One assay has as its system 5-HT2c receptor. In words: Functional assay (FLIPR calcium, Fluo 4-AM) in 5-HT2c expressed cells. Conditions: 5-HT2c expressed NIH 3T3 cells. Format: cell-based. On the procedure: (§1) Swiss 3T3 cells expressing r-5HT2C, r-5HT2A, h-5HT2C or h-5HT2A receptors are seeded at a density of 12,500 cells/well in 384 well black/clear collagen-coated plates. Forty eight (48) hrs later the cells are loaded with the calcium sensitive dye, Fluo 4-AM (4 μM dissolved in DMSO containing pluronic acid) in serum free DMEM in the presence of probenicid (2.5 mM) for 75 minutes at 37° C. in a CO2 incubator. Unincorporated dye is removed by washing 3 times with a HEPES-buffered saline containing probenicid (2.5 mM) using a Skatron™ cell washer (final volume 30 μL).
(§2) Plates are added to a fluorometric imaging plate reader (FLIPR 384 available from Molecular Devices Corporation) individually and fluorescence measurements are taken every 2 seconds over an 85 seconds period. Test compound additions are made simultaneously to all 384 wells after 20 seconds of baseline recording. Concentration-response curves are generated using Graphpad Prism™ (available from GraphPad Software, Inc., San Diego, Calif.) and agonist efficacies are generated as % of the response to 10 μM 5-HT (considered as 100%). Estimation of antagonist potencies (functional Kis) are generated by measuring inhibition of the test compound response to 5-HT (10 nM for 5-HT2C and 50 nM for 5-HT2A) and applying the Cheng Prusoff equation.
The functional data for the compounds listed in the Examples above utilizing the 5-HT2c expressed NIH 3T3 cells is summarized below.
As for `Clc1ccc(COc2ccnc(N3CCNCC3)n2)cc1Cl` [Example 2-F, 4-(3,4-Dichloro-benzyloxy)-2-piperazin-1-yl-pyrimidine], the “functional mode at 5-HT2c (partial agonist / full antagonist)” value was “full antagonists”.
For the compound `Fc1ccc(C(F)(F)F)c(COc2nccc(N3CCNCC3)n2)c1` [Example 1-PP, 2-(5-Fluoro-2-trifluoromethyl-benzyloxy)-4-piperazin-1-yl-pyrimidine], the “functional mode at 5-HT2c (partial agonist / full antagonist)” value is on record as “full antagonists”.

The same assay, now with this note: at 10 μM; 5-HT2c expressed NIH 3T3 cells.
In the case of `FC(F)(F)c1cc(COc2nccc(N3CCNCC3)n2)cc(C(F)(F)F)c1` [Example 1-QQ, 2-(3,5-Bis-trifluoromethyl-benzyloxy)-4-piperazin-1-yl-pyrimidine], the 5-HT2c functional activity entry was “no 5-HT2c functional activity”.
Regarding `CC(Oc1ccnc(N2CCNCC2)n1)c1ccc(Cl)cc1` (stereo not shown) [Example 2-D, 4-[1-(4-Chloro-phenyl)-ethoxy]-2-piperazin-1-yl-pyrimidine], the 5-HT2c functional activity entry is listed as “no 5-HT2c functional activity”.
Turning to `Cc1ccc(COc2ccnc(N3CCNCC3)n2)cc1C.Cl` [Example 2-H, 4-(3,4-Dimethyl-benzyloxy)-2-piperazin-1-yl-pyrimidine, hydrochloride], the 5-HT2c functional activity result is given as “no 5-HT2c functional activity”.

For the next assay, the system named is 5-HT2a receptor. Nature of the assay: Functional assay (FLIPR calcium, Fluo 4-AM) in 5-HT2a expressed cells. The following applies: 5-HT2a expressed NIH 3T3 cells. Format: cell-based. On the procedure: as §1, §2
The functional data for the compounds listed in the Examples above utilizing the 5-HT2a expressed NIH 3T3 cells is summarized below.
As to `Clc1cccc(COc2nccc(N3CCNCC3)n2)n1` [Example 5-A, 2-(6-Chloro-pyrdin-2-ylmethoxy)-4-piperazin-1-yl-pyrimidine, hydrochloride], the “functional mode at 5-HT2a (partial agonist / full antagonist)” value is reported as “full antagonists”.
For `C[C@@H]1CN(c2ccnc(OCc3cccc(Cl)c3)n2)CCN1` [Example 1-MM, 2-(3-Chloro-benzyloxy)-4-[(3R)-methyl-piperazin-1-yl]pyrimidine], the “functional mode at 5-HT2a (partial agonist / full antagonist)” value was “full antagonists”.
As to `Clc1ccc(COc2ccnc(N3CCNCC3)n2)cc1Cl` [Example 2-F, 4-(3,4-Dichloro-benzyloxy)-2-piperazin-1-yl-pyrimidine], the “functional mode at 5-HT2a (partial agonist / full antagonist)” value is “full antagonists”.
For `COc1cccc(COc2nc(C)cc(N3CCNCC3)n2)c1` [Example 1-AL, 2-(3-Methoxy-benzyloxy)-4-methyl-6-piperazin-1-yl-pyrimidine], the “functional mode at 5-HT2a (partial agonist / full antagonist)” value is listed as “full antagonists”.
In the case of `C[C@H]1CNCCN1c1ccnc(OCc2cc(F)ccc2F)n1` [Example 1-WW, 2-(2,5-Difluoro-benzyloxy)-4-[(2S)-methyl-piperazin-1-yl]-pyrimidine], the “functional mode at 5-HT2a (partial agonist / full antagonist)” value is listed as “full antagonists”.
`Clc1ccc(COc2nccc(N3CCNCC3)n2)cc1Cl` [Example 1-S, 2-(3,4-Dichloro-benzyloxy)-4-piperazin-1-yl-pyrimidine]: the “functional mode at 5-HT2a (partial agonist / full antagonist)” value is reported as “full antagonists”.
On to `Fc1ccc(COc2ccnc(N3CCNCC3)n2)cc1` [Example 2-E, 4-(4-Fluoro-benzyloxy)-2-piperazin-1-yl-pyrimidine], for which the “functional mode at 5-HT2a (partial agonist / full antagonist)” value was “full antagonists”.
On to `Cl.Fc1cccc(CNc2ccnc(N3CCNCC3)n2)c1` [Example 4-B, (3-Fluoro-benzyl)-(2-piperazin-1-yl-pyrimidin-4-yl)-amine, hydrochloride], for which the “functional mode at 5-HT2a (partial agonist / full antagonist)” value was “full antagonists”.
Regarding `C[C@H]1CNCCN1c1ccnc(OCc2cc(Cl)ccc2Cl)n1` [Example 1-VV, 2-(2,5-Dichloro-benzyloxy)-4-[(2S)-methyl-piperazin-1-yl]-pyrimidine], the “functional mode at 5-HT2a (partial agonist / full antagonist)” value is reported as “full antagonists”.
Same read-out and setting: next, `Cl.FC(F)(F)Oc1ccccc1COc1nccc(N2CCNCC2)n1` [Example 1-II, 4-Piperazin-1-yl-2-(2-trifluoromethoxy-benzyloxy)-pyrimidine, hydrochloride]: “full antagonists”; `Cl.Clc1cccc(CNc2ccnc(N3CCNCC3)n2)c1` [Example 4-A, (3-Chloro-benzyl)-(2-piperazin-1-yl-pyrimidin-4-yl)-amine, hydrochloride]: “full antagonists”.
For `Cl.Clc1cc(Cl)cc(COc2nccc(N3CCNCC3)n2)c1` [Example 1-HH, 2-(3,5-Dichloro-benzyloxy)-4-piperazin-1-yl-pyrimidine, hydrochloride], the “functional mode at 5-HT2a (partial agonist / full antagonist)” value is listed as “full antagonists”.
On to `Fc1ccc(C(F)(F)F)c(COc2nccc(N3CCNCC3)n2)c1` [Example 1-PP, 2-(5-Fluoro-2-trifluoromethyl-benzyloxy)-4-piperazin-1-yl-pyrimidine], for which the “functional mode at 5-HT2a (partial agonist / full antagonist)” value is listed as “full antagonists”.
Same read-out and setting: next, `Fc1ccc(COc2ccnc(N3CCNCC3)n2)cc1F` [Example 2-G, 4-(3,4-Difluoro-benzyloxy)-2-piperazin-1-yl-pyrimidine]: “full antagonists”; `Cc1ccc(COc2ccnc(N3CCNCC3)n2)cc1C.Cl` [Example 2-H, 4-(3,4-Dimethyl-benzyloxy)-2-piperazin-1-yl-pyrimidine, hydrochloride]: “full antagonists”; `Cl.Clc1cccc(Cl)c1COc1nccc(N2CCNCC2)n1` [Example 1-FF, 2-(2,6-Dichloro-benzyloxy)-4-piperazin-1-yl-pyrimidine, hydrochloride]: “full antagonists”.
For `Fc1cccc(COc2ccnc(N3CCNCC3)n2)c1F.O=C(O)C(F)(F)F` [Example 2-I, 4-(2,3-Difluoro-benzyloxy)-2-piperazin-1-yl-pyrimidine, trifluoroacetate], the “functional mode at 5-HT2a (partial agonist / full antagonist)” value is reported as “full antagonists”.
Consider `Fc1cc(COc2nccc(N3CCNCC3)n2)cc(F)c1F` [Example 1-YY, 4-Piperazin-1-yl-2-(3,4,5-trifluoro-benzyloxy)-pyrimidine], for which the “functional mode at 5-HT2a (partial agonist / full antagonist)” value is listed as “full antagonists”.
Still for that read-out and setting: next, `Cl.c1ccc(CNc2ccnc(N3CCNCC3)n2)cc1` [Example 4-D, Benzyl-(2-piperazin-1-yl-pyrimidin-4-yl)-amine, hydrochloride]: “full antagonists”.
On to `Cl.c1ccc(CNc2nccc(N3CCNCC3)n2)cc1` [Example 3-D, Benzyl-(4-piperazin-1-yl-pyrimidin-2-yl)-amine, hydrochloride], for which the “functional mode at 5-HT2a (partial agonist / full antagonist)” value is on record as “full antagonists”.
Turning to `Cl.Fc1cccc(COc2nccc(N3CCNCC3)n2)c1F` [Example 1-Y, 2-(2,3-Difluoro-benzyloxy)-4-piperazin-1-yl-pyrimidine, hydrochloride], the “functional mode at 5-HT2a (partial agonist / full antagonist)” value was “full antagonists”.
For `Fc1ccc(COc2nccc(N3CCNCC3)n2)cc1F` [Example 1-U, 2-(3,4-Difluoro-benzyloxy)-4-piperazin-1-yl-pyrimidine], the “functional mode at 5-HT2a (partial agonist / full antagonist)” value is “full antagonists”.
For `Cl.Clc1cccc(COc2nccc(N3CCNCC3)n2)c1Cl` [Example 1-GG, 2-(2,3-Dichloro-benzyloxy)-4-piperazin-1-yl-pyrimidine, hydrochloride], the “functional mode at 5-HT2a (partial agonist / full antagonist)” value is listed as “full antagonists”.
The same measure, in the same setting: as for `Fc1cccc(CNc2ccnc(N3CCNCC3)n2)c1.O=C(O)/C=C/C(=O)O` [Example 4-C, (3-Fluoro-benzyl)-(2-piperazin-1-yl-pyrimidin-4-yl)-amine, fumarate], the entry is “full antagonists”.

The assay is the same for the next values; noted with them: at 10 μM; 5-HT2a expressed NIH 3T3 cells.
Take `C[C@H](Oc1nccc(N2CCNCC2)n1)c1ccccc1` [Example 1-AG, 2-[(1S)-Phenyl-ethoxy]-4-piperazin-1-yl-pyrimidine]: the 5-HT2a functional activity entry was “no functional activity”.
Take `COc1cccc(COc2nc(C)cc(N3CCNCC3)n2)c1` [Example 1-AL, 2-(3-Methoxy-benzyloxy)-4-methyl-6-piperazin-1-yl-pyrimidine]: the 5-HT2a functional activity entry is recorded as “no functional activity”.
For the compound `FC(F)(F)c1cc(COc2nccc(N3CCNCC3)n2)cc(C(F)(F)F)c1` [Example 1-QQ, 2-(3,5-Bis-trifluoromethyl-benzyloxy)-4-piperazin-1-yl-pyrimidine], the 5-HT2a functional activity entry was “no functional activity”.
Turning to `Cc1cc(N2CCNCC2)nc(OCc2cccc(OC(F)(F)F)c2)n1` [Example 1-F, 4-Methyl-6-piperazin-1-yl-2-(3-trifluoromethoxy-benzyloxy)-pyrimidine], the 5-HT2a functional activity entry was “no functional activity”.
In the case of `Cc1cc(N2CCNCC2)nc(OCc2cccc(Oc3ccccc3)c2)n1` [Example 1-D, 4-Methyl-2-(3-phenoxy-benzyloxy)-6-piperazin-1-yl-pyrimidine], the 5-HT2a functional activity result was “no functional activity”.
